Laboratory results published in patent publication US10898469B2, “Imidazolylamide derivative” (Sumitomo Dainippon Pharma Co., Ltd., priority 2016, dated 2021).
Like-named read-outs stand apart in the source and are kept apart here.

What was measured:
[1] = Pharmacokinetic assay in tumor-bearing mice where HCT-116 cells were transplanted (Test Example 3); format: in vivo; conditions: female, BALB/cAnNCrlj-nu/nu, plasma, tumor-bearing nude mouse; for concentration at 1 h: read-out: Plasma concentrations after oral administration, 1 hour; for concentration at 2 h: read-out: Plasma concentrations after oral administration, 2 hours; for concentration at 6 h: read-out: Plasma concentrations after oral administration, 6 hours; for concentration at 24 h: read-out: Plasma concentrations after oral administration, 24 hours
Protocol: A 7- to 12-week-old nude mouse (BALB/cAnNCrlj-nu/nu, female, CHARLES RIVER LABORATORIES JAPAN, INC.) received intradermal transplantation of human colorectal cancer-derived HCT-116 cells (ATCC) in an amount of 3×10^6 cells/mouse around the ventral part. […] Blood was collected 1, 2, 6, and 24 hours after administration, and centrifuged to afford plasma samples. Methanol was added to the plasma samples so as to be adjusted to 80% of the final concentration. The samples were centrifuged and filtered to be deproteinized. Then, the test compound was detected and quantitated with LC-MS/MS (API4000, AB SCIEX). In quantitation, a calibration curve was prepared with mouse plasma comprising a known amount of the compound and Bezafibrate was used for the internal standard.
The test in Test Example 3 was performed for the compounds of Examples.
The following table and FIGS. 1 to 5 show temporal changes of the plasma concentrations of compounds after oral administration.

HCT-116 cells = experiment: Drug efficacy assay in tumor-bearing mice where HCT-116 cells were transplanted (Test Example 4); format: in vivo; conditions: HCT-116 tumor-bearing nude mouse, oral, dosage 200 mg/kg, administration period 15 days
Text: The present compound can be used to evaluate the anti-tumor effect thereof according to the following assay. A 4- to 7-week-old nude mouse (BALB/cAnNCrj-nu/nu, female, CHARLES RIVER LABORATORIES JAPAN, INC.) received intradermal transplantation of human colorectal cancer-derived HCT-116 cells (ATCC) in an amount of 3×10^6 cells/mouse around the ventral portion. The engraftment of HCT-116 cells was observed 5 to 14 days after the transplantation, and then each compound suspended in a solvent such as 0.5% methylcellulose solution was orally administrated to the mouse in a dose of 1 to 200 mg/kg one to twice daily. The tumor volume was measured over time after the administration to evaluate the effect for reducing the tumor volume by the administration of each compound. The tumor volume can be calculated from the minor axis and major axis of the tumor measured with a digital caliper (Mitutoyo) according to the following equation: Tumor volume [mm^3]=[…] The tumor volume in the present-compound-administration group was compared with that of the control administration group treated with only a solvent such as 0.5% methylcellulose solution, and T/C value was calculated according the following equation to evaluate the anti-tumor effect of the present compound. […]

[2] = Solid state thermal stability; format: physicochemical; conditions: 70° C., vessel left open
Protocol: The solid state thermal stability was measured for the compounds of Examples 237 and 238 according to the following method. The compounds of Examples 237 and 238 were put into an isothermal vessel set at 70° C., and the samples were stored for 12 weeks under the condition that the vessel was left open. Each elemental analysis result for each compound after 12 weeks is shown as follows.

[3] = oral single dose 100 mg/kg, 20% Labrasol
[4] = oral single dose 60 mg/kg, 0.5% methylcellulose

concentration at 1 h [1, 3]	concentration at 2 h [1, 3]	concentration at 6 h [1, 3]	concentration at 24 h [1, 3]	concentration at 1 h [1, 4]	concentration at 2 h [1, 4]	concentration at 6 h [1, 4]	concentration at 24 h [1, 4]	Elemental analysis C (%) measured value after 12 weeks ([2]; 12 weeks)	Elemental analysis Cl (%) measured value after 12 weeks ([2]; 12 weeks)	Elemental analysis F (%) measured value after 12 weeks ([2]; 12 weeks)	Elemental analysis H (%) measured value after 12 weeks ([2]; 12 weeks)	Elemental analysis N (%) measured value after 12 weeks ([2]; 12 weeks)	solid state thermal stability (change of form) ([2]; stored for 12 weeks)	SMILES	T/C (HCT-116 cells)
160 ng/mL	642 ng/mL	467 ng/mL	221 ng/mL	–	–	–	–	–	–	–	–	–	–	CC(=O)Nc1ccc(/C=C/C(=O)Nc2cn(Cc3cccc(C(F)(F)F)c3)cn2)cc1.Cl [Example 122, (E)-N-(1-(3-trifluoromethyl-benzyl)-1H-imidazol-4-yl)-3-(4-(acetylamino)phenyl)acrylamide]	51%
–	–	–	–	13200 ng/mL	9760 ng/mL	3390 ng/mL	4 ng/mL	54.71%	4.00%	13.74%	4.31%	10.28%	changed to 0.5 hydrochloride 0.5 hydrate	COc1ccc(C(=O)Nc2cn(Cc3cc(F)c(F)c(F)c3)cn2)cc1OC.Cl [Example 237, 3,4-dimethoxy-N-[1-(3,4,5-trifluorobenzyl)-1H-imidazol-4-yl]benzamide]	–
